Results: patent EP2252154B1, “METHOD FOR MINIMIZING THE CYTOTOXICITY OF THE EFFECTIVE AGENT IN A COMPOSITION THAT IS ADMINISTERED TO A MAMMAL OR GETS INTO CONTACT WITH A MAMMAL” (Oy Granula AB LTD, priority 2008, dated 2009)
Converted amounts (≈) assume the structure as drawn. Like-named read-outs stand apart in the source and are kept apart here.

How the values were obtained:
[1] = Peroxide radicals capturing capacity; type: biochemical; conditions: pure polyphenols isolated from wood material; per gram
[2] = Antioxidative capacity: inhibition of the peroxidation of lipids; type: biochemical; conditions: pure polyphenols isolated from wood materials
[3] = pure polyphenols; footnote 1: Willför et al., J. Agric. Food. Chem., 51, 7600-7606 (2003); cited from earlier work
[4] = pure polyphenols; footnote 1: Willför et al., J. Agric. Food. Chem, 51. 26 (2003); cited from earlier work
human keratinocyte cells = tested on: human keratinocyte cells
Method: The composition of the individual compounds included in the compound mixture contained by the samples was in accordance with Table 3B. The cytotoxicity of the sample extracts and powders for human keratinocyte cells was measured. The employed measure of cytotoxicity was the total protein quantity created by the samples, when the samples were incubated together with human keratinocyte cells for a certain incubation time (24 h). For each sample, there was searched a limit value (EC20), by which 20% of the cultivated cells died.

EC50 [2] | Compound | capturing capacity [1] | capturing capacity [3] | EC50 [4] | other results
1.135 µg/mL (≈ 4.43 µM) | O=C1C[C@@H](c2ccccc2)Oc2cc(O)cc(O)c21 [Pinosembrin] | 0.49 mmol/g |  |  | 
0.036 µg/mL (≈ 0.118 µM) | Oc1ccc([C@H]2Oc3c(ccc(O)c3O)[C@@H](O)[C@H]2O)cc1O [Melacasidine] | 20 mmol/g |  |  | 
 | O=C1c2c(O)cc(O)cc2O[C@H](c2ccc(O)c(O)c2)[C@H]1O [Taxifolin] |  | 16 mmol/g | 0.046 µg/mL (≈ 0.151 µM) | 
0.05 µg/mL (≈ 0.172 µM) | Oc1ccc([C@H]2Oc3c(ccc(O)c3O)[C@@H](O)[C@H]2O)cc1 [Teracasidine] | 7.8 mmol/g |  |  | 
 | COc1cc(C[C@H]2C(=O)OC[C@@H]2[C@H](O)c2ccc(O)c(OC)c2)ccc1O [Hydroxymatairesinol] |  | 5.6 mmol/g | 0.058 µg/mL (≈ 0.155 µM) | 
0.05 µg/mL (≈ 0.236 µM) | Oc1cc(O)cc(/C=C/c2ccccc2)c1 [Pinosylvin] | 0.78 mmol/g |  |  | 
 | Cc1cc(C(C)(C)C)c(O)c(C(C)(C)C)c1 [BTH, butylated hydroxytoluene] |  |  |  | times more cytotoxic with respect to HMR extract mixtures (human keratinocyte cells; from Table 1): 50-100 times; EC20 ppm 24 h (human keratinocyte cells; human, 24 h): 5.50 ppm
 | COc1cc(CC2COC(=O)C2(O)Cc2ccc(O)c(OC)c2)ccc1O (stereo not shown) [Nortrachelogenin] |  | 5.9 mmol/g | 0.053 µg/mL (≈ 0.142 µM) | 
 | COc1cc(C[C@@H](CO)[C@H](CO)Cc2ccc(O)c(OC)c2)ccc1O [Secoisolariciresinol] |  | 8.5 mmol/g | 0.037 µg/mL (≈ 0.102 µM) | 
 | COc1cc(C[C@H]2COC(=O)[C@@H]2Cc2ccc(O)c(OC)c2)ccc1O [Matairesinol] |  | 2.9 mmol/g | 0.099 µg/mL (≈ 0.276 µM) | 
 | COc1cc(C[C@H]2CO[C@H](c3ccc(O)c(OC)c3)[C@H]2CO)ccc1O [Lariciresinol] |  | 2.7 mmol/g | 0.126 µg/mL (≈ 0.35 µM) | 
0.017 µg/mL (≈ 0.0472 µM) | COc1cc([C@H]2c3cc(O)c(OC)cc3C[C@@H](CO)[C@@H]2CO)ccc1O [Cyclolariciresinol] | 12 mmol/g |  |  | 
0.488 µg/mL (≈ 1.69 µM) | O=C1c2c(O)cc(O)cc2O[C@H](c2ccc(O)cc2)[C@H]1O [Dihydrokaempferol] | 0.78 mmol/g |  |  | 

Compound | EC50 [2] | capturing capacity [1] | capturing capacity [3] | EC50 [4] | other results
Pinoresinol | 0.02 µg/mL | 7.8 mmol/g |  |  | 
